Data as given in US12157746B2, “Tetrahydro-1H-pyrazino[2,1-a]isoindolylquinoline compounds for the treatment of autoimmune disease” (F. HOFFMANN-LA ROCHE AG, priority 2018, dated 2024).
pIC50: −log10 of the molar value.

Columns and labels:
[1] = Human microsomal stability assay; type: in vitro ADME; settings: human liver microsomes 0.5 mg/mL, 37° C., pH 7.4, NADPH regenerating system, 0-30 minutes
Summary of the method: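 Human liver microsomes (0.5 mg/mL) with […] compound in 100 mM potassium phosphate, pH 7.4, 37° C; reaction started with NADPH regenerating system after 10 min preincubation. Parent remaining at 0–30 min quantified by LC-MS/MS; clearance binned low (<7.0), medium (7.0-16.2) or high (16.2-23.2) mL/min/kg.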

human TLR8 = biological target: T1, human TLR8 (Homo sapiens, UniProt Q9NR97); assay: HEK293-Blue-hTLR-8 cells assay; type: cell-based; settings: HEK293-Blue-hTLR8 cells, R848 stimulation, 20 hrs, SEAP reporter; read-out: HEK/hTLR8 IC50
T1 sequence (Q9NR97 27-1041): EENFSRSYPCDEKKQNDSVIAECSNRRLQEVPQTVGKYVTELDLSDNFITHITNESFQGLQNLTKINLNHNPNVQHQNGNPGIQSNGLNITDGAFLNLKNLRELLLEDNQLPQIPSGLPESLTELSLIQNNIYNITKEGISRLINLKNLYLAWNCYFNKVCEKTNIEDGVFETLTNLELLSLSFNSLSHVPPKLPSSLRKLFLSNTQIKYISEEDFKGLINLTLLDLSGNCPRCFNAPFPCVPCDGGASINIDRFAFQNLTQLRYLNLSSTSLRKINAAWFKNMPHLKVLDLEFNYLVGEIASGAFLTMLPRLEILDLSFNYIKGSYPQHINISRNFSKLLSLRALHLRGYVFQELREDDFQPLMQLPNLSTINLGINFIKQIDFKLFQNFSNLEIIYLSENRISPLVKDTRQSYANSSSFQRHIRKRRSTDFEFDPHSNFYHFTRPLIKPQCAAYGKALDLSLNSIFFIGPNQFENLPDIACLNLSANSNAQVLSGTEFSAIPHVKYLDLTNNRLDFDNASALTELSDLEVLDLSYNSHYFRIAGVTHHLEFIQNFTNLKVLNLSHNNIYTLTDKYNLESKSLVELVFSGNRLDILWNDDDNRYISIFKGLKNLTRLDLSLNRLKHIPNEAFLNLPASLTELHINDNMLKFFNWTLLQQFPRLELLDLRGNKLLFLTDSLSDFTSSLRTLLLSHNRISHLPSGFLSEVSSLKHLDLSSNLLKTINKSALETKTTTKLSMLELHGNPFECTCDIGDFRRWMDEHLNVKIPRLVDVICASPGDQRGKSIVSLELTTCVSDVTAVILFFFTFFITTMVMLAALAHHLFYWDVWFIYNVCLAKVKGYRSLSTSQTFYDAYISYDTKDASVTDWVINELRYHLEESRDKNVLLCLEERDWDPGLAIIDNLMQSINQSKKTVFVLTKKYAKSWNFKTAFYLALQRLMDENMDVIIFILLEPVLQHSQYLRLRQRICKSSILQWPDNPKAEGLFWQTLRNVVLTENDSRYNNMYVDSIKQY
Summary of the method: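 Antagonism read out in HEK293-Blue-hTLR8 cells carrying an NF-κB/AP-1-driven SEAP reporter, stimulated with R848 (10 μL of 60 uM stock added) alongside serially diluted compound (1% DMSO), 20 h at 37° C. Supernatant SEAP measured with QUANTI-Blue after 2 h at 37° C, absorbance at 620-655 nm.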

CL (h) [1]	pIC50 (human TLR8)	Compound
8.7 mL/min/kg	> 8.49	C[C@@H]1CN(c2ccc(C#N)c3ncccc23)C[C@@H]2c3ccc(NC4CNC4)cc3CN12 [Example 28, 5-[(4R,10S)-8-(azetidin-3-ylamino)-4-methyl-3,4,6,10b-tetrahydro-1H-pyrazino[2,1-a]isoindol-2-yl]quinoline-8-carbonitrile]
8.7 mL/min/kg	> 8.49	C[C@@H]1CN(c2ccc(C#N)c3ncccc23)C[C@@H]2c3ccc(N[C@@H]4CNC[C@@H]4F)cc3CN12 [Example 32, 5-[(4R,10bS)-8-[[(3R,4S)-4-fluoropyrrolidin-3-yl]amino]-4-methyl-3,4,6,10b-tetrahydro-1H-pyrazino[2,1-a]isoindol-2-yl]quinoline-8-carbonitrile]
7.6 mL/min/kg	9.05	C[C@@H]1CN(c2ccc(C#N)c3ncccc23)C[C@@H]2c3ccc(N4C[C@@H](N)[C@H](O)C4)cc3CN12 (single isomer, unassigned) [Example 40B]
8.4 mL/min/kg	8.68	[2H]c1ccc2c(N3C[C@@H](C)N4Cc5cc(N6CC7CNCC(C6)O7)ccc5[C@H]4C3)ccc(C#N)c2n1 [Example 93, 5-[(4R,10bS)-4-methyl-8-(9-oxa-3,7-diazabicyclo[3.3.1]nonan-3-yl)-3,4,6,10b-tetrahydro-1H-pyrazino[2,1-a]isoindol-2-yl]-2-deuterio-quinoline-8-carbonitrile]
8.0 mL/min/kg	> 8.49	C[C@@H]1CN(c2ccc(C#N)c3ncccc23)C[C@@H]2c3ccc(OCCN(C)C)cc3CN12 [Example 25, 5-[(4R,10bS)-8-[2-(dimethylamino)ethoxy]-4-methyl-3,4,6,10b-tetrahydro-1H-pyrazino[2,1-a]isoindol-2-yl]quinoline-8-carbonitrile]
8.8 mL/min/kg	> 8.49	C[C@@H]1CN(c2ccc(C#N)c3ncccc23)C[C@@H]2c3ccc(N[C@H]4CNC[C@H]4F)cc3CN12 [Example 30, 5-[(4R,10bS)-8-[[(3S,4R)-4-fluoropyrrolidin-3-yl]amino]-4-methyl-3,4,6,10b-tetrahydro-1H-pyrazino[2,1-a]isoindol-2-yl]quinoline-8-carbonitrile]
6.2 mL/min/kg	8.82	C[C@@H]1CN(c2ccc(C#N)c3ncccc23)C[C@@H]2c3ccc(N4C[C@@H](N)[C@](C)(O)C4)cc3CN12 [Example 45A, 5-[(4R,10bS)-8-[(3R,4R)-4-amino-3-hydroxy-3-methyl-pyrrolidin-1-yl]-4-methyl-3,4,6,10b-tetrahydro-1H-pyrazino[2,1-a]isoindol-2-yl]quinoline-8-carbonitrile]
6.2 mL/min/kg	> 8.49	C[C@@H]1CN(c2ccc(C#N)c3ncccc23)CC2c3ccc(N4C[C@H](N)[C@@H](O)C4)cc3CN21 (relative stereo) [Example 21, 5-[(4R,10bS)-8-[trans-3-amino-4-hydroxy-pyrrolidin-1-yl]-4-methyl-3,4,6,10b-tetrahydro-1H-pyrazino[2,1-a]isoindol-2-yl]quinoline-8-carbonitrile]
6.2 mL/min/kg	> 9.52	C[C@@H]1CN(c2ccc(C#N)c3ncccc23)C[C@@H]2c3ccc(N4CC5(CN(C)C5)C4)cc3CN12 [Example 38, 5-[(4R,10bS)-4-methyl-8-(6-methyl-2,6-diazaspiro[3.3]heptan-2-yl)-3,4,6,10b-tetrahydro-1H-pyrazino[2,1-a]isoindol-2-yl]quinoline-8-carbonitrile]
6.5 mL/min/kg	> 8.49	C[C@@H]1CN(c2ccc(C#N)c3ncccc23)C[C@@H]2c3ccc(N4CC5(CCN5)C4)cc3CN12 [Example 37, 5-[(4R,10bS)-8-(1,6-diazaspiro[3.3]heptan-6-yl)-4-methyl-3,4,6,10b-tetrahydro-1H-pyrazino[2,1-a]isoindol-2-yl]quinoline-8-carbonitrile]
6.5 mL/min/kg	> 8.49	C[C@@H]1CN(c2ccc(C#N)c3ncccc23)C[C@@H]2c3ccc(N4CC[C@@H](N)C4)cc3CN12 [Example 20, 5-[(4R,10bS)-8-[(3R)-3-aminopyrrolidin-1-yl]-4-methyl-3,4,6,10b-tetrahydro-1H-pyrazino[2,1-a]isoindol-2-yl]quinoline-8-carbonitrile]
7.0 mL/min/kg	> 8.49	C[C@@H]1CN(c2ccc(C#N)c3ncccc23)C[C@@H]2c3ccc(N4CCOC[C@@H](N)C4)cc3CN12 [Example 54B, 5-[(4R,10bS)-8-[(6S)-6-amino-1,4-oxazepan-4-yl]-4-methyl-3,4,6,10b-tetrahydro-1H-pyrazino[2,1-a]isoindol-2-yl]quinoline-8-carbonitrile]
6.4 mL/min/kg	> 9.52	[2H]c1ccc2c(N3C[C@@H](C)N4Cc5cc(N6CC(C)(N)C6)ccc5[C@H]4C3)ccc(C#N)c2n1 [Example 92, 5-[(4R,10bS)-8-(3-amino-3-methyl-azetidin-1-yl)-4-methyl-3,4,6,10b-tetrahydro-1H-pyrazino[2,1-a]isoindol-2-yl]-2-deuterio-quinoline-8-carbonitrile]
8.9 mL/min/kg	9.15	C[C@@H]1CN(c2ccc(C#N)c3ncccc23)C[C@@H]2c3ccc(N4C[C@@H](N)[C@H](F)C4)cc3CN12 [Example 48, 5-[(4R,10bS)-8-[(3R,4R)-3-amino-4-fluoro-pyrrolidin-1-yl]-4-methyl-3,4,6,10b-tetrahydro-1H-pyrazino[2,1-a]isoindol-2-yl]quinoline-8-carbonitrile]
7.0 mL/min/kg	8.49	CO[C@@H]1CN(c2ccc3c(c2)CN2[C@H](C)CN(c4ccc(C#N)n5nccc45)C[C@H]32)CC[C@H]1N [Example 104, 4-[(4R,10bS)-8-[(3R,4R)-4-amino-3-methoxy-1-piperidyl]-4-methyl-3,4,6,10b-tetrahydro-1H-pyrazino[2,1-a]isoindol-2-yl]pyrazolo[1,5-a]pyridine-7-carbonitrile]
7.0 mL/min/kg	8.85	C[C@@H]1CN(c2ccc(C#N)c3ncccc23)C[C@@H]2c3ccc(N4C[C@H](N)[C@@H](O)C4)cc3CN12 [Example 40A, 5-[(4R,10bS)-8-[(3S,4S)-3-amino-4-hydroxy-pyrrolidin-1-yl]-4-methyl-3,4,6,10b-tetrahydro-1H-pyrazino[2,1-a]isoindol-2-yl]quinoline-8-carbonitrile]
6.6 mL/min/kg	> 8.49	C[C@@H]1CN(c2ccc(C#N)c3ncsc23)C[C@@H]2c3ccc(N4CCNCC4)cc3CN12 [Example 6, 7-[(4R,10bS)-4-methyl-8-piperazin-1-yl-3,4,6,10b-tetrahydro-1H-pyrazino[2,1-a]isoindol-2-yl]-1,3-benzothiazole-4-carbonitrile]
8.1 mL/min/kg	> 8.49	C[C@@H]1CN(c2ccc(C#N)c3ncccc23)C[C@@H]2c3ccc(N4CCOC5CNCC54)cc3CN12 (stereo partly drawn) [Example 52, 5-[(4R,10bS)-8-(3,4a,5,6,7,7a-hexahydro-2H-pyrrolo[3,4-b][1,4]oxazin-4-yl)-4-methyl-3,4,6,10b-tetrahydro-1H-pyrazino[2,1-a]isoindol-2-yl]quinoline-8-carbonitrile]
6.2 mL/min/kg	> 8.49	N#Cc1ccc(N2CCN3Cc4cc(N5CCNCC5)ccc4C3C2)c2scnc12 (centres unmarked) [Example 4, 7-(8-piperazin-1-yl-3,4,6,10b-tetrahydro-1H-pyrazino[2,1-a]isoindol-2-yl)-1,3-benzothiazole-4-carbonitrile]
